Publication PMC5845896, “A Novel Bifunctional Amino Acid Racemase With Multiple Substrate Specificity, MalY From Lactobacillus sakei LT-13: Genome-Based Identification and Enzymological Characterization” (Frontiers in Microbiology, 2018)
Substitutions are numbered along the chain they refer to.

Tests used:
Ls-MalY [1] = target: T1, Ls-MalY (Lactobacillaceae, UniProt A0A223K4L6); test: UV-vis absorption spectrum ([…] nm peak), hydroxylamine treatment; type: binding; conditions: 20 mM potassium phosphate pH 7.5; as purified; covalent, K233
T1 construct: full length in pET-22b(+), C-terminal hexa-histidine tag, E. coli BL21(DE3), subunit ~46 kDa with tag, 281 kDa by gel filtration, homohexamer
T1 sequence (A0A223K4L6 1-391): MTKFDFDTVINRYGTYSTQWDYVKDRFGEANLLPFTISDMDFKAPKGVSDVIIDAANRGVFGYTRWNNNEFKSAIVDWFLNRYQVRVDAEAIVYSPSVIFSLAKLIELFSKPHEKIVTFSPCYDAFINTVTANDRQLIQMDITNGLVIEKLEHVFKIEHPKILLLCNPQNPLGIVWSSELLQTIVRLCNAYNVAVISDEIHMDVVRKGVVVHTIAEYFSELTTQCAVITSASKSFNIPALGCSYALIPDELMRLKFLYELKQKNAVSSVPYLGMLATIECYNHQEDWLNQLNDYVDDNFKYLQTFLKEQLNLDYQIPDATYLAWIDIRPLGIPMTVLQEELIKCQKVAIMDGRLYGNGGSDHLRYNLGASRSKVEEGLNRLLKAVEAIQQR

Ls-MalY [2] = target: T2, Ls-MalY (Lactobacillaceae, UniProt A0A223K4L6, Y123A); test: UV-vis absorption spectrum, hydroxylamine treatment; type: binding; conditions: 20 mM potassium phosphate pH 7.5; as purified
T2 construct: full length in pET-22b(+), C-terminal hexa-histidine tag, E. coli BL21(DE3), subunit ~46 kDa with tag, 281 kDa by gel filtration, homohexamer
T2 sequence (A0A223K4L6 1-391 Y123A): T1 sequence (A0A223K4L6 1-391) with Y123A

[3] = target: MalY from Lactobacillus sakei LT-13 (wild type) (Lactobacillus sakei LT-13); test: SEC; Superdex 200 Increase 10/300 GL, 20 mM potassium phosphate pH 7.5 with 0.15 M KCl, 0.75 mL/min; molecular weight estimated against markers (thyroglobulin, apoferritin, β-amylase, BSA, carbonic anhydrase)

Compound | UV-vis absorption spectrum (420 nm peak), hydroxylamine treatment (Ls-MalY [1]) | UV-vis absorption spectrum, hydroxylamine treatment (Ls-MalY [2]) | stoichiometry N [3]
Cc1ncc(COP(=O)(O)O)c(C=O)c1O [PLP] | the absorption peak was abolished by treatment with hydroxylamine (Figure 3A), suggesting that Ls-MalY bound PLP | These spectral features suggest that the Y123A mutant bound PLP | 
MalY from Lactobacillus sakei LT-13 (wild type) (enzyme) |  |  | 6
